Measured values published in patent publication US6362163B1, “Parathyroid hormone-related peptide analogs” (The General Hospital Corporation, priority 1996, dated 2002).

Assays:
[1] = molecular target: T1, PTH/PTHrP receptor (Homo sapiens, UniProt Q03431); test: Competition radioligand binding, COS-7 cells transfected with human PTH/PTHrP receptor
T1 construct: expressed in transfected cells; host or cells: COS-7 cells, transient transfection, vector pcDNA-1
T1 sequence (Q03431 27-593): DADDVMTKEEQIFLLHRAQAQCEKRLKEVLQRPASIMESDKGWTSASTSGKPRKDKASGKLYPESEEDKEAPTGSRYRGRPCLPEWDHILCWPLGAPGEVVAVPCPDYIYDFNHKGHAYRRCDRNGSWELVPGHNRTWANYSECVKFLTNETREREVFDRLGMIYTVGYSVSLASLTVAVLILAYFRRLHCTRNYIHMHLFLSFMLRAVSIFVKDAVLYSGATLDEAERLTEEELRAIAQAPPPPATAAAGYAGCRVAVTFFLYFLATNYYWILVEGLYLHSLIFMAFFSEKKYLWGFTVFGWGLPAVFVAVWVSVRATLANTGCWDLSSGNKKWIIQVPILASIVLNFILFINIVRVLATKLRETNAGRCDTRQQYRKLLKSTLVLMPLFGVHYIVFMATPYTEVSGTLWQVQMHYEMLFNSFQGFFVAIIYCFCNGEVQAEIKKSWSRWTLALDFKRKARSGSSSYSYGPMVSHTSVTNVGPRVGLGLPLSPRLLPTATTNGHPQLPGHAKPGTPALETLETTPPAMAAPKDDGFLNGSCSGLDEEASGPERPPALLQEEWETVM
Method: (§1) The cDNAs encoding the human PTH/PTHrP receptor (Schipani, E. et al., Endocrinology 132:2157-2165 (1993)) and the human PTH-2 receptor (Usdin, T. et al., J. Biol. Chem. 270:15455-15458 (1995)) were carried on the expression vectors pcDNA-1 and pcDNAI/Amp (InVitrogen, San Diego, Calif.), respectively. COS-7 cells were cultured and transfected as described previously (Lee, C. et al., Mol. Endocrinol. 9:1269-1278 (1995)). Cells were transfected in 24-well plates using plasmid DNA (200 ng/well) purified by cesium chloride/ethidium bromide gradient centrifugation. Ligand binding and cAMP accumulation assays were performed three days after transfection, by which time the cell density reached 500,000±100,000 cells/well.
(§2) Binding reactions were performed as described previously. Id. Each well (final volume: […]) contained 26 fmole of ^125I-[Nle^8,21,Tyr^34]rPTH(1-34)NH2 (100,000 CPM) and various amounts (0.4-300 pmole) of an unlabeled competitor ligand, both diluted in binding buffer (50 mM Tris-HCl, pH 7.7, 100 mM NaCl, 5 mM KCl, 2 mM CaCl, 5% heat-inactivated horse serum, 0.5% heat-inactivated fetal bovine serum). Incubations were at room temperature for 2 hours, except for experiments involving Scatchard analysis, which were performed at 4° C. for 6 hours. At the end of the binding reaction, the cells were rinsed 3 times with 0.5 ml of binding buffer, lysed with 0.5 ml of 5M NaOH, and the entire lysate was counted. Nonspecific binding of tracer (NSB), determined in wells containing 1 μM of [NleTyr^8,21,Tyr^34]rPTH-(1-34)NH2, was ˜1% of total counts added. Maximum specific binding (B0) was calculated as the total radioactivity bound to cells in the absence of unlabeled PTH ligand, minus NSB. […] For Scatchard analyses, homologous competition binding studies were performed that used ^125I-[-NleTyr^8,21,Tyr^34]rPTH-(1-34)NH2 (26 fmole/well) and varying amounts (1.2-300 pmol) of the same unlabeled ligand. Estimates of the number of receptors/cell derived from these studies assumed a single class of binding sites and a transfection efficiency of 20% (Abou-Samra, A. B. et al., Proc. Natl. Acad. Sci (USA) 89:2732-2736 (1992)).

[2] = molecular target: T2, PTH-2 receptor (Homo sapiens, UniProt P49190); test: Competition radioligand binding, COS-7 cells transfected with human PTH-2 receptor
T2 construct: expressed in transfected cells; host or cells: COS-7 cells, transient transfection, vector pcDNAI/Amp
Method: as §1, §2

[3] = molecular target: T1, PTH/PTHrP receptor; test: Ligand-induced intracellular cAMP accumulation, COS-7 cells expressing human PTH/PTHrP receptor; type: cell-based; conditions: for cAMP agonist activity in words, PTH/PTHrP receptor: COS-7 cells; for cAMP accumulation Maximum, PTH/PTHrP receptor: highest level of cAMP attained, basal 4.6 ± 0.2 not subtracted, 1h at room temperature
Method: as §1
(§3) Transfected COS-7 cells were rinsed with […] of binding buffer. 200 μl of IBMX buffer (DMEM containing 2 mM IBMX, 1 mg/ml bovine serum albumin, 35 mM Hepes-NaOH, pH 7.4) and […] of binding buffer or binding buffer containing various amounts of a PTH or PTHrP analog were then added. The plates were incubated for 60 minutes at room temperature. The buffer was then withdrawn and the cells lysed by placing the plates on powdered dry ice and adding 0.5 ml of 50 mM HCl. The acid lysate was diluted 1/30 in dH2O, and an aliquot (5-50 μl) analyzed for cAMP content by radioimmunoassay. […] The cells were then incubated for 30 minutes at room temperature, and the resulting intracellular cAMP was measured by RIA. Data were analyzed using the AssayZap software (Elsevier Science Publishers BV, Cambridge, United Kingdom).

[4] = molecular target: T2, PTH-2 receptor; test: Ligand-induced intracellular cAMP accumulation, COS-7 cells expressing human PTH-2 receptor; type: cell-based; conditions: for cAMP agonist activity in words, PTH-2 receptor: COS-7 cells; for cAMP accumulation Maximum, PTH-2 receptor: highest level of cAMP attained, basal 5.4 ± 0.3 not subtracted, 1h at room temperature
Method: as §1, §3

[5] = molecular target: T2, PTH-2 receptor; test: Antagonism of PTH-(1-34)-induced cAMP formation, COS-7 cells expressing PTH-2 receptor; type: cell-based; conditions: 30 minutes at room temperature, IBMX
Method: (§4) FIGS. 7A and 7B depicts the antagonism of PTH-(1-34)-induced cAMP formation in COS-7 cells expressing PTH/PTHrP or PTH-2 receptors. […] The corresponding basal cAMP levels in cells not treated with peptide were […] pmoles/well, respectively. Data are the mean (±s.e.m.) of two experiments, each performed in duplicate.
as §3

[6] = molecular target: T1, PTH/PTHrP receptor; test: Antagonism of PTH-(1-34)-induced cAMP formation, COS-7 cells expressing PTH/PTHrP receptor; type: cell-based; conditions: 30 minutes at room temperature, IBMX
Method: as §4, §3

[7] = competition with radioligand, COS-7 cells
[8] = agonist [Tyr34]hPTH-(1-34)NH2 1 nM

T2 sequence (P49190 25-550): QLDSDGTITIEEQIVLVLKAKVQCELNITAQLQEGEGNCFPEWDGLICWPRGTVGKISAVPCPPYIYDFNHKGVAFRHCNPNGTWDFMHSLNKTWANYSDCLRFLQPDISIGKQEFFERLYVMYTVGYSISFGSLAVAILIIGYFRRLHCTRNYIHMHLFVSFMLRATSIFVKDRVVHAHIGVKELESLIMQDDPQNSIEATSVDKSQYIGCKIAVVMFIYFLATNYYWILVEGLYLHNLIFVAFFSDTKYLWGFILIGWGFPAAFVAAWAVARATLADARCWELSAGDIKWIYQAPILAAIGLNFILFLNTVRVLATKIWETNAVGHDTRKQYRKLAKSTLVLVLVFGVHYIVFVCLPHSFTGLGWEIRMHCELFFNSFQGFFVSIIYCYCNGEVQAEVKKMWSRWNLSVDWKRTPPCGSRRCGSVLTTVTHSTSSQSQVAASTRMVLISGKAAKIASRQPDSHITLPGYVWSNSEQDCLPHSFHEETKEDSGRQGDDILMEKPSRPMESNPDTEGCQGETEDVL

Substance	Binding potency, fold more potent than PTHrP-(1-36) ([1]; PTH/PTHrP receptor, inhibition of radioligand binding)	Binding in words, PTH/PTHrP receptor [1, 7]	Binding in words, PTH-2 receptor [2, 7]	cAMP agonist activity in words, PTH/PTHrP receptor [3]	cAMP accumulation Maximum, PTH/PTHrP receptor [3]	cAMP agonist activity in words, PTH-2 receptor [4]	cAMP accumulation Maximum, PTH-2 receptor [4]	cAMP level in cells treated with agonist alone, PTH-2 receptor ([5]; 1 nM)	cAMP level in cells treated with agonist alone, PTH/PTHrP receptor ([6]; 1 nM)	Binding affinity, fold stronger than PTHrP-(1-36) ([1]; PTH/PTHrP receptor)	Enhancement of binding potency compared to PTHrP-(1-36) ([2]; PTH-2 receptor)	Inhibition of PTH-(1-34)-induced cAMP activity in words, PTH-2 receptor [5, 8]	Effect on PTH-(1-34)-induced cAMP response in words, PTH/PTHrP receptor [6, 8]
[Tyr^34]hPTH-(1-34)NH2 [[Y34]hPTH-(1-34)NH2, reference compound]	4.8 fold	fully inhibited binding of the radioligand	bound with high apparent affinity	full and potent agonists	113 ± 13 pmoles/well	potent agonist	81 ± 5 pmoles/well	70±8 pmoles/well	167±17 pmoles/well				
[Trp^23,Tyr^36]hPTHrP-(1-36) [[W23, Y36]hPTHrP-(1-36)NH2]				potent agonist	123 ± 14 pmoles/well	inactive	12 ± 1 pmoles/well			6 fold	71 fold	at least as potent as [Leu^11,D-Trp^12]hPTHrP(7-34)NH2	not an antagonist, but instead augmented the agonist response to PTH-(1-34)
